For the assay, the target named is Factor IXa (Homo sapiens, UniProt P00740). Description: Determination of inhibitory activity against Factor IXa (cleavage of fluorescent peptide substrate). In kind it is biochemical. The following applies: cleavage of fluorescent peptide CH3SO2-D-CHG-Gly-Arg-AFC, release of AFC; read-out: FIXa IC50. From the text:
• (R)—N-(3-aminobenzo[d]isoxazol-6-yl)-2-hydroxy-2-((R)-4-(1-(6-methoxypyridazin-4-yl)-1H-pyrazol-3-yl)-6,6-dimethyl-3-oxomorpholin-2-yl)acetamide. Determination of Inhibitory Activity Against Factor IXa
Formation of a clot to stem bleeding at a site of blood vessel injury involves the coordinated activity of a group of plasma proteins that initiate and propagate fibrin formation and subsequently protect fibrin from premature degradation. Factor IX is a key component of the plasma system that forms a fibrin clot at a site of vascular injury. The activity of Factor IXa is measured by monitoring the cleavage of the fluorescent peptide, CH3SO2-D-CHG-Gly-Arg-AFC.AcOH (“CHG” is cyclohexyl-glycine and “AFC” is trifluoro aminomethyl coumarin). Factor IXa cleaves the amide bond between Arg and AFC, thereby releasing the AFC fluorophore. The free AFC can be detected with a fluorescence detector at an excitation wavelength of 405 nm and emission wavelength of 510 nm.
Sequence of Factor IXa (P00740 227-461 limits assumed): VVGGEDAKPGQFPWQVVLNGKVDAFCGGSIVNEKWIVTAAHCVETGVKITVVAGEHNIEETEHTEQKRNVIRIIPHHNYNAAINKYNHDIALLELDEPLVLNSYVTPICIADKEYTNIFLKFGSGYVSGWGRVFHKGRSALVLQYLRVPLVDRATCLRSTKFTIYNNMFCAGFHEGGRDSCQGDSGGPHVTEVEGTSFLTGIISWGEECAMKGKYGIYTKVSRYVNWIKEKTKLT
Sequence of Factor IXa (P00740 47-191 partner limits assumed): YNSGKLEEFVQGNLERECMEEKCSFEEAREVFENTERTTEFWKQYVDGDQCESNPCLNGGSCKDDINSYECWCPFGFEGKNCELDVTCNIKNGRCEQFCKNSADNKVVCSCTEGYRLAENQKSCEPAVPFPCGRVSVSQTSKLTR
With `COc1cc(-n2ccc(N3CCO[C@H]([C@@](C)(O)C(=O)Nc4ccc5c(N)noc5c4)C3=O)n2)ccn1` [Example 1, (2R)—N-(3-Amino-1,2-benzoxazol-6-yl)-2-hydroxy-2-[(2R)-4-[1-(2-methoxy-4-pyridyl)pyrazol-3-yl]-3-oxo-morpholin-2-yl]propanamide], the IC50 was 160 nM. Turning to `Cc1cc(N2CCO[C@H]([C@@](C)(O)C(=O)Nc3ccc4c(N)noc4c3)C2=O)nn1-c1cnnc(C#N)c1` [Example 3], the half-inhibitory concentration (IC50) came out at 68.4 nM. For `CCOc1cc(-n2ccc(N3CCO[C@H]([C@@](C)(O)C(=O)Nc4ccc5c(N)noc5c4)C3=O)n2)cnn1` [Example 4], the IC50 stood at 23.2 nM. With `C[C@](O)(C(=O)Nc1ccc2c(N)noc2c1)[C@H]1OCCN(c2ccn(-c3cnnc(C(N)=O)c3)n2)C1=O` [Example 5, 5-(3-((R)-2-((R)-1-((3-Aminobenzo[d]isoxazol-6-yl)amino)-2-hydroxy-1-oxopropan-2-yl)-3-oxomorpholino)-1H-pyrazol-1-yl)pyridazine-3-carboxamide], the IC50 came to 20.2 nM. Consider `C[C@](O)(C(=O)Nc1ccc2c(N)noc2c1)[C@H]1OCCN(c2ccn(-c3cnnc(OC(CO)CCl)c3)n2)C1=O` (stereo partly drawn) [Example 6, (2R)—N-(3-Aminobenzo[d]isoxazol-6-yl)-2-((2R)-4-(1-(6-((1-chloro-3-hydroxypropan-2-yl)oxy)pyridazin-4-yl)-1H-pyrazol-3-yl)-3-oxomorpholin-2-yl)-2-hydroxypropanamide], for which the IC50 is 975 nM. Regarding `C[C@](O)(C(=O)Nc1ccc2c(N)noc2c1)[C@H]1OCCN(c2ccn(-c3ccc(=O)n(C(F)F)c3)n2)C1=O` [Example 7, (R)—N-(3-Aminobenzo[d]isoxazol-6-yl)-2-((R)-4-(1-(1-(difluoromethyl)-6-oxo-1,6-dihydropyridin-3-yl)-1H-pyrazol-3-yl)-3-oxomorpholin-2-yl)-2-hydroxypropanamide], the IC50 is 18.1 nM.

In the case of `C[C@](O)(C(=O)Nc1ccc2c(N)noc2c1)[C@H]1OCCN(c2ccn(-c3ccc(F)cc3)n2)C1=O` [Example 13, (R)—N-(3-aminobenzo[d]isoxazol-6-yl)-2-((R)-4-(1-(4-fluorophenyl)-1H-pyrazol-3-yl)-3-oxomorpholin-2-yl)-2-hydroxypropanamide], the IC50 was found to be 678 nM. To `C[C@](O)(C(=O)Nc1ccc2c(N)noc2c1)[C@H]1OCCN(c2ccn(-c3ccc(S(C)(=O)=O)cc3)n2)C1=O` [Example 14, (R)—N-(3-aminobenzo[d]isoxazol-6-yl)-2-hydroxy-2-((R)-4-(1-(4-(methylsulfonyl)phenyl)-1H-pyrazol-3-yl)-3-oxomorpholin-2-yl)propanamide] belongs 13.2 nM; to `C[C@](O)(C(=O)Nc1ccc2c(N)noc2c1)[C@H]1OCCN(c2ccn(-c3ccc(C(=O)O)cc3)n2)C1=O` [Example 15, 4-(3-((R)-2-((R)-1-((3-aminobenzo[d]isoxazol-6-yl)amino)-2-hydroxy-1-oxopropan-2-yl)-3-oxomorpholino)-1H-pyrazol-1-yl)benzoic acid], 289 nM.

With `C[C@](O)(C(=O)Nc1ccc2c(N)noc2c1)[C@H]1OCCN(c2ccn(-c3ccc(C#N)c(Cl)c3)n2)C1=O` [Example 16, (R)—N-(3-aminobenzo[d]isoxazol-6-yl)-2-((R)-4-(1-(3-chloro-4-cyanophenyl)-1H-pyrazol-3-yl)-3-oxomorpholin-2-yl)-2-hydroxypropanamide], the IC50 was 137 nM. For `C[C@](O)(C(=O)Nc1ccc2c(N)noc2c1)[C@H]1OCCN(c2nn(-c3ccc(F)cc3)cc2F)C1=O` [Example 17, (R)—N-(3-aminobenzo[d]isoxazol-6-yl)-2-((R)-4-(4-fluoro-1-(4-fluorophenyl)-1H-pyrazol-3-yl)-3-oxomorpholin-2-yl)-2-hydroxypropanamide], the IC50 was 548 nM. To `Cc1cc(-n2ccc(N3CCO[C@H]([C@@](C)(O)C(=O)Nc4ccc5c(N)noc5c4)C3=O)n2)ccn1` [Example 19, (R)—N-(3-aminobenzo[d]isoxazol-6-yl)-2-hydroxy-2-((R)-4-(1-(2-methylpyridin-4-yl)-1H-pyrazol-3-yl)-3-oxomorpholin-2-yl)propanamide] belongs 71.9 nM; to `C[C@](O)(C(=O)Nc1ccc2c(N)noc2c1)[C@H]1OCCN(c2ccn(-c3ccnc(C#N)c3)n2)C1=O` [Example 21, (R)—N-(3-aminobenzo[d]isoxazol-6-yl)-2-((R)-4-(1-(2-cyanopyridin-4-yl)-1H-pyrazol-3-yl)-3-oxomorpholin-2-yl)-2-hydroxypropanamide], 16 nM. For the compound `C[C@](O)(C(=O)Nc1ccc2c(N)noc2c1)[C@H]1OCCN(c2ccn(-c3ccnc(C(F)(F)F)c3)n2)C1=O` [Example 22, (R)—N-(3-aminobenzo[d]isoxazol-6-yl)-2-hydroxy-2-((R)-3-oxo-4-(1-(2-(trifluoromethyl)pyridin-4-yl)-1H-pyrazol-3-yl)morpholin-2-yl)propanamide], the IC50 came out at 36.9 nM. As for `CCOc1cc(-n2ccc(N3CCO[C@H]([C@@](C)(O)C(=O)Nc4ccc5c(N)noc5c4)C3=O)n2)ccn1` [Example 23, (R)—N-(3-aminobenzo[d]isoxazol-6-yl)-2-((R)-4-(1-(2-ethoxypyridin-4-yl)-1H-pyrazol-3-yl)-3-oxomorpholin-2-yl)-2-hydroxypropanamide], the IC50 came to 113 nM. On to `CC(C)Oc1cc(-n2ccc(N3CCO[C@H]([C@@](C)(O)C(=O)Nc4ccc5c(N)noc5c4)C3=O)n2)ccn1` [Example 24, (R)—N-(3-aminobenzo[d]isoxazol-6-yl)-2-hydroxy-2-((R)-4-(1-(2-isopropoxypyridin-4-yl)-1H-pyrazol-3-yl)-3-oxomorpholin-2-yl)propanamide], for which the IC50 came out at 387 nM.

Consider `CN(C)c1cc(-n2ccc(N3CCO[C@H]([C@@](C)(O)C(=O)Nc4ccc5c(N)noc5c4)C3=O)n2)ccn1` [Example 25, (R)—N-(3-aminobenzo[d]isoxazol-6-yl)-2-((R)-4-(1-(2-(dimethylamino)pyridin-4-yl)-1H-pyrazol-3-yl)-3-oxomorpholin-2-yl)-2-hydroxypropanamide], for which the IC50 was determined as 95.4 nM. Consider `COc1cc(-n2ccc(N3CCO[C@H]([C@@](C)(O)C(=O)Nc4ccc5c(N)noc5c4)C3=O)n2)c(Br)cn1` [Example 26, (R)—N-(3-aminobenzo[d]isoxazol-6-yl)-2-((R)-4-(1-(5-bromo-2-methoxypyridin-4-yl)-1H-pyrazol-3-yl)-3-oxomorpholin-2-yl)-2-hydroxypropanamide], for which the IC50 came to 346 nM. The result for `COc1cc(-n2ccc(N3CCO[C@H]([C@@](C)(O)C(=O)Nc4ccc5c(N)noc5c4)C3=O)n2)c(F)cn1` [Example 27, (R)—N-(3-aminobenzo[d]isoxazol-6-yl)-2-((R)-4-(1-(5-fluoro-2-methoxypyridin-4-yl)-1H-pyrazol-3-yl)-3-oxomorpholin-2-yl)-2-hydroxypropanamide] reads 148 nM. Turning to `COc1cc(-n2ccc(N3CCO[C@H]([C@@](C)(O)C(=O)Nc4ccc5c(N)noc5c4)C3=O)n2)c(Cl)cn1` [Example 28, (R)—N-(3-aminobenzo[d]isoxazol-6-yl)-2-((R)-4-(1-(5-chloro-2-methoxypyridin-4-yl)-1H-pyrazol-3-yl)-3-oxomorpholin-2-yl)-2-hydroxypropanamide], the IC50 came out at 445 nM. For `COc1cc(-n2ccc(N3CCO[C@H]([C@@](C)(O)C(=O)Nc4ccc5c(N)noc5c4)C3=O)n2)c(C(F)(F)F)cn1` [Example 29, (R)—N-(3-aminobenzo[d]isoxazol-6-yl)-2-hydroxy-2-((R)-4-(1-(2-methoxy-5-(trifluoromethyl)pyridin-4-yl)-1H-pyrazol-3-yl)-3-oxomorpholin-2-yl)propanamide], the IC50 turned out to be 106 nM.

With `C[C@](O)(C(=O)Nc1ccc2c(N)noc2c1)[C@H]1OCCN(c2nn(-c3ccnc(C(F)(F)F)c3)cc2F)C1=O` [Example 30, (R)—N-(3-aminobenzo[d]isoxazol-6-yl)-2-((R)-4-(4-fluoro-1-(2-(trifluoromethyl)pyridin-4-yl)-1H-pyrazol-3-yl)-3-oxomorpholin-2-yl)-2-hydroxypropanamide], the IC50 was found to be 36.2 nM. The result for `C[C@](O)(C(=O)Nc1ccc2c(N)noc2c1)[C@H]1OCCN(c2nn(-c3ccnc(C#N)c3)cc2F)C1=O` [Example 31, (R)—N-(3-aminobenzo[d]isoxazol-6-yl)-2-((R)-4-(1-(2-cyanopyridin-4-yl)-4-fluoro-1H-pyrazol-3-yl)-3-oxomorpholin-2-yl)-2-hydroxypropanamide] reads 31 nM; that for `COc1cc(-n2cc(Cl)c(N3CCO[C@H]([C@@](C)(O)C(=O)Nc4ccc5c(N)noc5c4)C3=O)n2)ccn1` [Example 33, (R)—N-(3-aminobenzo[d]isoxazol-6-yl)-2-((R)-4-(4-chloro-1-(2-methoxypyridin-4-yl)-1H-pyrazol-3-yl)-3-oxomorpholin-2-yl)-2-hydroxypropanamide], 817 nM.

For the compound `C[C@](O)(C(=O)Nc1ccc2c(N)noc2c1)[C@H]1OCCN(c2nn(-c3ccnc(C#N)c3)cc2Cl)C1=O` [Example 34, (R)—N-(3-aminobenzo[d]isoxazol-6-yl)-2-((R)-4-(4-chloro-1-(2-cyanopyridin-4-yl)-1H-pyrazol-3-yl)-3-oxomorpholin-2-yl)-2-hydroxypropanamide], the IC50 was found to be 570 nM. In the case of `COc1cc(-n2cc(C)c(N3CCO[C@H]([C@@](C)(O)C(=O)Nc4ccc5c(N)noc5c4)C3=O)n2)ccn1` [Example 35, (R)—N-(3-aminobenzo[d]isoxazol-6-yl)-2-hydroxy-2-((R)-4-(1-(2-methoxypyridin-4-yl)-4-methyl-1H-pyrazol-3-yl)-3-oxomorpholin-2-yl)propanamide], the IC50 was 694 nM.

A word on the IC50: it is the concentration needed to halve the response being measured.
